Measurements as given in patent US10669334B2, “Treatment for Dupuytren's disease” (Oxford University Innovation Limited, priority 2010, dated 2020).

How the values were obtained:
palmar fibroblasts = assay: Culture force monitor: isometric force contraction of collagen gels seeded with palmar fibroblasts; assay type: cell-based, human; conditions: 24 h; for isometric force contraction of palmar fibroblasts: 1 ng/ml, versus PS alone, FIG. 12 / FIG. 22
Source text: The culture force monitor (CFM) utilised and culture conditions are shown in FIGS. 3A to 3E: (A) Rectangular seeded collagen gels were cast and floated in medium, tethered between two flotation bars one of which is held stationary whilst the other is attached to a force transducer. (B) Cell-generated tensional forces in the collagen gel are detected by the force transducer, and live data are logged every 15 seconds providing a continuous output of force (dynes, […]) generated. (C) After 24 hour contraction, gels are harvested and processed for α-SMA mRNA, protein and immunofluorescence. (D) Cells were routinely seeded in gels with a high aspect-ratio collagen lattice, although low aspect-ratio lattices (E) were also used in experiments to compare effects of less strain on cell contractility. […]
Collagen gels seeded with palmar fibroblasts were cultured for 24 h with supernatants from AGE-(100 μg/ml) stimulated monocytes (M) in the absence or presence of anti TNF-α (10 μg/ml) and isometric force contraction quantified. Experiments were performed in duplicate. […]

[1] = system: non-palmar dermal fibroblasts; assay: Culture force monitor: contraction rate of non-palmar dermal fibroblasts; assay type: cell-based, human; conditions: 1 ng/ml; 24 h; one patient; FIG. 22
Source text: The culture force monitor (CFM) utilised and culture conditions are shown in FIGS. 3A to 3E: (A) Rectangular seeded collagen gels were cast and floated in medium, tethered between two flotation bars one of which is held stationary whilst the other is attached to a force transducer. (B) Cell-generated tensional forces in the collagen gel are detected by the force transducer, and live data are logged every 15 seconds providing a continuous output of force (dynes, […]) generated. (C) After 24 hour contraction, gels are harvested and processed for α-SMA mRNA, protein and immunofluorescence. (D) Cells were routinely seeded in gels with a high aspect-ratio collagen lattice, although low aspect-ratio lattices (E) were also used in experiments to compare effects of less strain on cell contractility.
We then compared the effect of TNF-α on the rate of contraction on palmar skin and non-palmar skin from a Dupuytren's patient. Collagen gels seeded with palmar fibroblasts were cultured for 24 h in the absence (PS or NPS alone) or presence of TNF-α (1 ng/ml). Data are shown as +/−SD from triplicate experiments using cells from 3 patients for palmar skin and one patient non-palmar skin (**p=0.0012, ns=not significant). […]

human monocytes = assay: TNF-α production by human monocytes (ELISA); assay type: cell-based
Experimental: LPS, a pathogen associated molecular pattern (PAMP) is shown as positive control.
The known receptors for S100A8 are the receptor for advanced glycation end products (RAGE) and the Toll-like receptors 2 and 4. Human monocytes at 1×10^5/ml were incubated in 10% FCS with human S100 A8 at 0.5 with the addition of either antibody to TLR4, TLR2 or isotype controls (not shown), or soluble RAGE (sRAGE)) over 14 hours. TNF-α levels were determined by ELISA.
It is more difficult to show in vitro that HMGB1 also acts on monocytes to lead to pro-inflammatory cytokine release. […] Our experiment, the results of which are shown in FIG. 18, involved human monocytes at 1×10^5/ml incubated in 10% FCS with HMGB1 or LPS alone or together at concentrations shown over 14 hours. TNF-α levels were determined by ELISA.

[2] = cited from earlier work
murine bone marrow cells = assay: TNF-α production by murine bone marrow cells (wild type, TLR4-/-, MyD88-/-) by ELISA; assay type: cell-based; conditions: TLR4-/- and MyD88-/- mice, FIG. 17
Experimental: In FIG. 17, TNF-α produced by murine bone marrow cells of wild type, TLR4^−/− and MyD88^−/− mice on exposure to murine S100A8 were measured by ELISA.

[3] = exposure to alarmin over tested range, FIG. 15
[4] = phase III clinical trial, Hurst et al 2009

TGF-β1: cytokine that leads to development of the myofibroblast phenotype
palmar fibroblast contractility (palmar fibroblasts; 10 ng/ml, compared to untreated palmar fibroblasts, p=0.0001, FIG. 12): significant increased palmar fibroblast contractility | contractility of human palmar fibroblasts in collagen lattice under isometric conditions (palmar fibroblasts; TGF-β1, cells from 3 patients, FIG. 21): enhanced contractility

TNF-α
isometric force contraction of palmar fibroblasts (palmar fibroblasts): significantly enhanced contraction | contraction rate of non-palmar dermal fibroblasts [1]: no change, or a slight reduction, in contraction rate

S100A8: Alarmin (DAMP) protein, human
TNF-α production by human monocytes (human monocytes; [3]): produced TNF-α in a dose dependent manner | receptor mediating TNF-α production by human monocytes (human monocytes; human S100 A8 at 0.5 with antibody to TLR4, TLR2 or soluble RAGE, 14 hours, FIG. 16): TLR-4 and not RAGE or TLR-2 | relative activity in TNF-α production by human monocytes (human monocytes; within the tested range, FIG. 15): more active than S100A9 and S100A12

bacterial collagenase: bacterial (Clostridial) collagenase for enzymatic fasciotomy, FDA approved as Xiaflex
recurrence rates in patients with PIPJ contractures ([2]; 2 years follow-up, Badalamente et al 2007): 57% | MCPJ contractures effectively treated (to within 5° of full extension) [2, 4]: 77% | PIPJ contractures effectively treated (to within 5° of full extension) [2, 4]: 40%

AGEs
palmar fibroblast contraction with supernatants from AGE-stimulated monocytes (palmar fibroblasts; AGE 100 μg/ml stimulated monocyte supernatant, absence or presence of anti TNF-α 10 μg/ml, FIG. 20): stimulated palmar fibroblast contraction in a TNF-α dependent manner | contractility of palmar dermal fibroblasts (palmar fibroblasts; AGEs-BSA 150 μg/ml, FIG. 14): not affected

B1: HMGB1: high mobility group box protein, an Alarmin (DAMP) (protein, UniProt P09429 1-215, looked up)
High mobility group protein B1: MGKGDPKKPRGKMSSYAFFVQTCREEHKKKHPDASVNFSEFSKKCSERWKTMSAKEKGKFEDMAKADKARYEREMKTYIPPKGETKKKFKDPNAPKRPPSAFFLFCSEYRPKIKGEHPGLSIGDVAKKLGEMWNNTAADDKQPYEKKAAKLKEKYEKDIAAYRAKGKPDAAKKGVVKAEKSKKKKEEEEDEEDEEDEEEEEDEEDEDEEEDDDDE
isometric force contraction of palmar fibroblasts (palmar fibroblasts): trend towards increased contraction resulting from HMGB1, this was not statistically significant | TNF-α production by human monocytes (human monocytes; HMGB1 alone, 14 hours, FIG. 18): does not stimulate TNF-α production by monocytes | TNF-α production by human monocytes (human monocytes; HMGB1 together with LPS, 14 hours, FIG. 18): active in combination with LPS

B2: murine S100A8: murine Alarmin S100A8 (protein, UniProt P27005 2-89, looked up)
Protein S100-A8: PSELEKALSNLIDVYHNYSNIQGNHHALYKNDFKKMVTTECPQFVQNINIENLFRELDINSDNAINFEEFLAMVIKVGVASHKDSHKE
receptor/signalling dependence of TNF-α production (murine bone marrow cells): predominantly binds to TLR-4 and that the intracellular signalling leading to TNF-α production by monocytes is entirely dependent on adaptor protein MyD88

B3: S100A9: Alarmin (DAMP) protein (protein, UniProt P06702 1-114, looked up)
Protein S100-A9: MTCKMSQLERNIETIINTFHQYSVKLGHPDTLNQGEFKELVRKDLQNFLKKENKNEKVIEHIMEDLDTNADKQLSFEEFIMLMARLTWASHEKMHEGDEGPGHHHKPGLGEGTP
TNF-α production by human monocytes (human monocytes; [3]): to some extent
